According to US20250002866A1, “CELL CULTURE PLATFORMS, METHODS AND USES THEREOF” (ACADEMIA SINICA, priority 2021, published 2025):

Tests used:
[1] = test system: CTC spheroid derived from blood samples of patient A; assay: Ex vivo drug assay on CTC spheroids of patient A; assay type: cell-based, human; settings: for diameter and morphology of CTC spheroid: after treatment for 3 days, versus untreated mock group
Description: FIGS. 3A-F show the in vitro drug test results of CTC-derived spheroids and clinical-pathological results of the clinical patient. (A) The drug cytotoxicity assay results on the patient-derived CTC-originated spheroid of patient A. Six chemotherapeutic drugs were tested in this assay include oxaliplatin, docetaxel, doxorubicin, irinotecan, mitomycin-C, and 5-FU. (B and D) The image of the morphology of CTC-derived spheroids after drug panel treatment at day 3. Scale bar=20 μm. (C and E) The normalized viability of CTC-derived spheroids with indicated drug panel after 3 days of treatment. (F) The contrast-enhanced CT images before and after cisplatin/gemcitabine treatment of patient B.
In order to validate the ex vivo drug assay results, we tested single or combination therapeutic agents in CTC cultures derived from blood samples of patients. […] A designed ex vivo drug assay with both used and potential candidate drug panel including oxaliplatin, docetaxel, 5-FU, doxorubicin, mitomycin-c, and irinotecan was accomplished with time-dependent and dose-dependent manner (FIG. 3A). With regard to the cell morphology, the diameter of CTC spheroid derived from blood samples of patient A was about 30˜40 μm with an intact spheroid morphology in untreated mock group. […] The results highly match with the clinical treatment outcomes in the treatment resistance on the clinical used drugs. Therefore, doxorubicin was the related promising candidate drug among the un-used drugs (mitomycin-c and irinotecan) for next line treatment (FIG. 3B). Additional ex vivo drug test was also performed on patient B with urothelium cancer.
Spheroid formation on the culture platform of the invention. Collect the cell sample that would be used for cultivation on the culture platform of the invention in suspension medium. Add cell suspension medium into each well. The cells could be cultured under 37° C. incubator with humidified 5% CO2 atmosphere. Exchange half of the culture medium once or twice per week. The cultured spheroids (tumoroids) enables sustain in the culture platform of the invention for more than two weeks depends on the cell density and demand of the spheroid size.

[2] = test system: cancer of patient A; assay: Clinical treatment outcome of patient A; assay type: in vivo, human; settings: previous clinical treatment

Structure (SMILES) | diameter and morphology of CTC spheroid [1] | clinical treatment outcome [2] | spheroid viability ([1]; CTC spheroids of patient A under drug treatment)
O=c1[nH]cc(F)c(=O)[nH]1 [5-FU, fluorouracil] | smaller than the mock group and became leakage in appearance | progression disease | 
O=C1[O][Pt]2([NH][C@@H]3CCCC[C@H]3[NH]2)[O]C1=O [oxaliplatin] | smaller than the mock group and became leakage in appearance | progression disease | 
CC(=O)O[C@@]12CO[C@@H]1C[C@H](O)[C@@]1(C)C(=O)[C@H](O)C3=C(C)[C@@H](OC(=O)[C@H](O)[C@@H](NC(=O)OC(C)(C)C)c4ccccc4)C[C@@](O)([C@@H](OC(=O)c4ccccc4)[C@H]21)C3(C)C [docetaxel] |  | progression disease | 
COc1cccc2c1C(=O)c1c(O)c3c(c(O)c1C2=O)C[C@@](O)(C(=O)CO)C[C@@H]3O[C@H]1C[C@H](N)[C@H](O)[C@H](C)O1 [doxorubicin] | obvious broken morphology |  | lower than 4%
